The test system of this assay is BDF1 mice, P388 leukemia ip, median survival T/C. Put plainly: NCI In Vivo Anticancer Drug Screen. Data for tumor model P388 Leukemia (intraperitoneal) in B6D2F1 (BDF1) mice. As to conditions: endpoint: median survival time, higher = longer survival. A digest of the protocol: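 Mice carrying the transplantable tumour receive compound or vehicle. Survival is followed in each arm, and the treated measure is divided by the vehicle measure.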

Where [1] appears, read: dose: 25.0 mg/kg/injection, schedule: Q01DX009 (ip), vehicle: water.
The mark [2] stands for this setting: dose: 25.0 mg/kg/injection, schedule: Q04DX003 (ip), vehicle: water.
Where [3] appears, read: dose: 50.0 mg/kg/injection, schedule: Q01DX009 (ip), vehicle: water.
The mark [4] stands for this setting: dose: 50.0 mg/kg/injection, schedule: Q04DX003 (ip), vehicle: water.
[5] abbreviates: dose: 100.0 mg/kg/injection, schedule: Q04DX003 (ip), vehicle: water.
[6] abbreviates: dose: 200.0 mg/kg/injection, schedule: Q01DX009 (ip), vehicle: water.
Setting [7] is: dose: 400.0 mg/kg/injection, schedule: Q01DX009 (ip), vehicle: water.
[8] abbreviates: dose: 25.0 mg/kg/injection, schedule: Q04DX003 (ip), vehicle: saline.
Setting [9] is: dose: 50.0 mg/kg/injection, schedule: Q01DX009 (ip), vehicle: saline.
Setting [10] is: dose: 50.0 mg/kg/injection, schedule: Q04DX003 (ip), vehicle: saline.
Setting [11] is: dose: 75.0 mg/kg/injection, schedule: Q01DX009 (ip), vehicle: saline.
Setting [12] is: dose: 100.0 mg/kg/injection, schedule: Q04DX003 (ip), vehicle: saline with Tween-80.
Setting [13] is: dose: 200.0 mg/kg/injection, schedule: Q04DX003 (ip), vehicle: saline with Tween-80.
The mark [14] stands for this setting: dose: 400.0 mg/kg/injection, schedule: Q04DX003 (ip), vehicle: saline with Tween-80.
[15] abbreviates: dose: 100.0 mg/kg/injection, schedule: Q01DX009 (ip), vehicle: saline with Tween-80.
Setting [16] is: dose: 200.0 mg/kg/injection, schedule: Q01DX009 (ip), vehicle: saline with Tween-80.

Where “and” joins values, the source holds several entries; their conditions need not be identical. Equal values may be shown once. Toxic doses and inconclusive results are not listed. Residues, ends and D or L forms follow the SMILES beside them.

On to `NCCCCC(N)C(=O)NC(CCCN=C(N)N)C(N)=O` (stereo not drawn) (H-Lys-Arg-NH2; configuration not given here), for which the T/C (dose: 6.25 mg/kg/injection, schedule: Q04DX003 (ip), vehicle: water) is 115 % of control; the T/C (dose: 12.5 mg/kg/injection, schedule: Q04DX003 (ip), vehicle: water) is 112 % of control; the T/C under setting [1] is 101 % of control; the T/C under setting [2] is 104 % of control; the T/C under setting [3] is 108 % of control; the T/C under setting [4] was 97 % of control. Also, the T/C was 111 % of control (dose: 100.0 mg/kg/injection, schedule: Q01DX009 (ip), vehicle: water); 104 % of control under setting [5]; 106 % of control under setting [6]; 106 % of control under setting [7].

Take `COc1ccc2c(C)[n+]3ccc4cc(OC)c(OC)cc4c3cc2c1` (tested in a mixture with another compound): the T/C under setting [8] was 154 % of control; the T/C (dose: 33.0 mg/kg/injection, schedule: Q01DX009 (ip), vehicle: saline) was 186 % of control; the T/C under setting [9] was 181 % of control; the T/C under setting [10] is 154 % of control and 181 % of control; the T/C under setting [11] is 118 % of control; the T/C (dose: 200.0 mg/kg/injection, schedule: Q04DX003 (ip), vehicle: saline) was 150 % of control.

For the compound `O=C(O)C(Cc1ccccc1)N=Cc1c(O)ccc2ccccc12` (configuration not stated), the T/C runs as follows: under setting [12], 105 % of control; under setting [13], 114 % of control; under setting [14], 89 % of control.

As to `O=C1c2ccccc2C(=O)c2cc(S(=O)(=O)Cl)ccc21`, the T/C (dose: 100.0 mg/kg/injection, schedule: Q01DX001 (ip), vehicle: saline) is 109 % of control; the T/C (dose: 200.0 mg/kg/injection, schedule: Q01DX001 (ip), vehicle: saline) is 109 % of control; the T/C (dose: 400.0 mg/kg/injection, schedule: Q01DX001 (ip), vehicle: saline) was 90 % of control.

For `Cc1ccc(C(=O)C[S+](C)C)c(C)c1`, the T/C is 109 % of control (dose: 10.46 mg/kg/injection, schedule: Q01DX001 (ip), vehicle: saline); 100 % of control (dose: 12.5 mg/kg/injection, schedule: Q01DX009 (ip), vehicle: saline); 100 % of control (dose: 20.93 mg/kg/injection, schedule: Q01DX001 (ip), vehicle: saline); 105 % of control (dose: 25.0 mg/kg/injection, schedule: Q01DX009 (ip), vehicle: saline); 100 % of control (dose: 41.87 mg/kg/injection, schedule: Q01DX001 (ip), vehicle: saline); 100 % of control under setting [9]. Moreover, the T/C (dose: 56.25 mg/kg/injection, schedule: Q04DX003 (ip), vehicle: saline) is 108 % of control; the T/C under setting [11] was 100 % of control; the T/C (dose: 112.5 mg/kg/injection, schedule: Q04DX003 (ip), vehicle: saline) is 95 % of control.

Regarding `COc1cc(NS(C)(=O)=O)ccc1Nc1c2ccc([N+](=O)[O-])cc2nc2c(C)c(C)ccc12`, the T/C by setting is: (dose: 0.29 mg/kg/injection, schedule: Q04DX003 (ip), vehicle: saline with Tween-80) 112 % of control; (dose: 0.44 mg/kg/injection, schedule: Q04DX003 (ip), vehicle: saline with Tween-80) 154 % of control; (dose: 0.88 mg/kg/injection, schedule: Q01DX009 (ip), vehicle: saline with Tween-80) 185 % of control; (dose: 1.0 mg/kg/injection, schedule: Q04DX003 (ip), vehicle: saline with Tween-80) 154 % of control; (dose: 1.33 mg/kg/injection, schedule: Q01DX009 (ip), vehicle: saline with Tween-80) 203 % of control; (dose: 2.0 mg/kg/injection, schedule: Q01DX009 (ip), vehicle: saline with Tween-80) 254 % of control. For the same compound, the T/C reads like this: (dose: 2.66 mg/kg/injection, schedule: Q01DX009 (ip), vehicle: saline with Tween-80) 269 % of control; (dose: 3.0 mg/kg/injection, schedule: Q01DX009 (ip), vehicle: saline with Tween-80) 273 % of control; (dose: 4.0 mg/kg/injection, schedule: Q01DX009 (ip), vehicle: saline with Tween-80) 272 % of control; (dose: 6.0 mg/kg/injection, schedule: Q01DX009 (ip), vehicle: saline with Tween-80) 211 % of control; (dose: 9.0 mg/kg/injection, schedule: Q01DX009 (ip), vehicle: saline with Tween-80) 295 % of control; (dose: 22.0 mg/kg/injection, schedule: Q04DX003 (ip), vehicle: saline with Tween-80) 236 % of control and 281 % of control. In addition, the T/C was 260 % of control under setting [8]; 272 % of control and 281 % of control (dose: 33.0 mg/kg/injection, schedule: Q04DX003 (ip), vehicle: saline with Tween-80); 272 % of control and 281 % of control (dose: 50.0 mg/kg/injection, schedule: Q04DX003 (ip), vehicle: saline with Tween-80); 230 % of control under setting [10]; 272 % of control and 122 % of control (dose: 75.0 mg/kg/injection, schedule: Q04DX003 (ip), vehicle: saline with Tween-80); 95 % of control (dose: 100.0 mg/kg/injection, schedule: Q04DX003 (ip), vehicle: saline).

On to `Clc1c(Cl)c2c(Cl)c(Cl)c1C[P+](c1ccccc1)(c1ccccc1)CC[P+](c1ccccc1)(c1ccccc1)Cc1c(Cl)c(Cl)c(c(Cl)c1Cl)C[P+](c1ccccc1)(c1ccccc1)CC[P+](c1ccccc1)(c1ccccc1)C2`, for which the T/C (dose: 1.56 mg/kg/injection, schedule: Q01DX009 (ip), vehicle: water) was 92 % of control; the T/C (dose: 3.13 mg/kg/injection, schedule: Q01DX009 (ip), vehicle: water) is 113 % of control; the T/C (dose: 6.25 mg/kg/injection, schedule: Q01DX009 (ip), vehicle: water) is 106 % of control.

In the case of `Clc1ccc(-c2cc(=[N+]3CCC4(CC3)SSC3(CC[N+](=c5cc(-c6ccc(Cl)cc6)ss5)CC3)S4)ss2)cc1` (configuration not stated), the T/C is, setting by setting: under setting [1], 110 % of control; under setting [2], 94 % of control; under setting [3], 121 % of control; under setting [4], 101 % of control; under setting [5], 92 % of control; under setting [6], 121 % of control. Moreover, the T/C was 97 % of control (dose: 200.0 mg/kg/injection, schedule: Q04DX003 (ip), vehicle: water); 121 % of control under setting [7]; 98 % of control (dose: 400.0 mg/kg/injection, schedule: Q04DX003 (ip), vehicle: water).

Regarding `CCCCNc1c(OC)ccc2c(C)c3[n+](cc12)CCc1cc(OC)c(OC)cc1-3`, the T/C is 103 % of control (dose: 1.56 mg/kg/injection, schedule: Q04DX003 (ip), vehicle: water) and 103 % of control (dose: 3.13 mg/kg/injection, schedule: Q04DX003 (ip), vehicle: water).

Take `c1ccc(C(=NCCN=C(c2ccccc2)c2ccccc2)c2ccccc2)cc1`: the T/C was 87 % of control under setting [15]; 100 % of control under setting [12]; 104 % of control under setting [16]; 91 % of control under setting [13]; 112 % of control (dose: 400.0 mg/kg/injection, schedule: Q01DX009 (ip), vehicle: saline with Tween-80); 95 % of control under setting [14].

As for `O=C(c1ccccc1)C(SC(C(=O)c1ccccc1)c1ccccc1)c1ccccc1` (configuration not stated), the T/C reads like this: (dose: 50.0 mg/kg/injection, schedule: Q01DX009 (ip), vehicle: saline with Tween-80) 98 % of control; under setting [15], 97 % of control; under setting [16], 91 % of control.

The values above are taken from PubChem BioAssay AID328 (DTP/NCI, 2004).
